From patent publication US12247018B2, “Aryl-n-aryl derivatives for treating a RNA virus infection” (ABIVAX, priority 2018, dated 2025) come the findings set out here.

Test [1] deals with CHIKV strain of La Réunion outbreak (LR2006-OPY1) with GFP modification in 5′. As to the kind of experiment: microbe, parasite or virus in culture. The test is classed as cell-based, Chikungunya virus. The note with it: Chikungunya virus, HEK-293T, infected HEK293T cells; for inhibition at 1 µM: compounds at 1 μM, MOI 0.1, 22 h, values above 100 lowered to 100, read-out: % CHIKV Inhibition Mean (n = 2). The method, then:
The ability of the compounds to inhibit viral replication was assessed with an experiment in which infected cells were treated by compounds of formula (Ic) at 1 μM. As a positive control for inhibition of Chikungunya, Ribavirin was used. Toxicity of the compounds was assessed in parallel.
Human embryonic kidney cells 293T (HEK293T, CRL-11268) were maintained in Dulbecco's modified Eagle's Medium (DMEM, 31966-021, Thermo Fisher Scientific) supplemented with 10% of fetal bovine serum (FBS), penicillin and streptomycin. After removal of the medium, cells were washed with Ca^2+ and Mg^2+-free salt solution to remove all traces of serum. After aspiration of wash solution, cells were dissociated with 0.25% Trypsin-EDTA solution and incubated 30 s at least in 37° C. incubator. Concentration of cell suspension was determined by an automatic cell counter (EVE, NanoEntek) and, if needed, adjusted to 0.33×10^6 cells/mL with DMEM medium supplemented with 10% FBS.
100 μL of the cell suspension were dispatched in a ViewPlate-96 Black (6005182, PerkinElmer) and in a transparent 96-well cell culture plate (655180, Greiner bio-one). After an incubation for 24 h at 37° C. under 5% of CO2, compounds were added at the proper concentration.
An intermediate dilution was prepared with DMSO (D8418, Sigma) at 2 mM in a 96-well V-bottom microplate from the stock solution:
An intermediate dilution was prepared with DMSO (D8418, Sigma) at 25 mM in a 96-well V-bottom microplate from the stock solution:
Perform serial dilution in 2 μL of DMSO 13 times to reach 0.0015 mM. Proceed as follows in table III:
For both screen and determination of IC50, 1 μL of each solution was added in a 1 mL Masterblock 96 wells (Greiner bio-one, 780261) containing 1 mL of DMEM medium. As a positive control, 5 μL of a 80 mM Ribavirin solution (R9644, Sigma) is added to 1 mL of DMEM. On the other hand, DMSO is used as a negative control.
[…]. Vector Borne Zoonotic Dis. 2006; 6 (4)). This modified virus was used to infect cells at MOI 0.1. […].
Medium was removed after 22 h at 37° C. under 5% of CO2 and cells were washed as described above. 60 μL of RIPA buffer (50 mM Tris-HCl pH8, 100 mM NaCl, 1 mM MgCl2, 1% Triton X-100) was added to cells and incubated for at least 20 min before reading fluorescence signal. Pierce 660 nm Protein Assay Reagent (22660, Thermo scientific) was used to normalize fluorescence signal by protein quantity.
• A first round of experiments has been performed wherein the results are expressed as inhibition percentage, which is calculated as follows, through the following steps: • 1. Fluorescence intensity (FI)/Absorbance 660 nm (A660)=A • This ratio allows considering the infection (GFP virus) to the protein amount. • 2. A′=A−background noise of non-infected plate, • 3. B=Fluorescence intensity (FI)/Absorbance 660 nm (A660) of infected but non treated plates, • 4. C=A′/B, which is then converted as the percentage of infection after treatment, compared to non-treated sample, and subsequently as the infection percentage. For instance, a value of 100 in Table IV here below means that, after treatment, the signal attributed to GFP fluorescence is abolished, which is correlated to the absence of infection. • 5. C′=100-C
This value corresponds to the inhibition's percentage.
The following Table IV encompasses said C′ value for some compounds, as calculated above with a mean of 2 experiments, and corresponding standard deviation.
Some values were originally above 100. In these cases, the value has been lowered to 100. This means that some molecules also have an impact on the viability of the cells. In other words, the A value may be lower than the background noise.
Moreover, for each measure, the test was performed with Ribavirin as control. The value of the inhibition percentage was checked, giving 100%.

In the next test the test system is RSV A2. As to the kind of experiment: RSV inhibition (cytopathic effect) in HEp-2 cells using Viral ToxGlo assay. The test is classed as cell-based. The note with it: human respiratory syncytial virus; RSV A2, HEp-2 cells, MOI 0.5, 72 h p.i. In outline:
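HEp-2 cells seeded overnight, then given compounds (≤1% DMSO final) in 2% FBS EMEM and infected right away with RSV A2 at MOI 0.5; uninfected wells used for cytotoxicity. After 72 h p.i. at 37 °C/5% CO2, cytopathic effect read by Viral ToxGlo luminescence after 20 min at room temperature.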

With `O=C(N=C1NCCCN1)c1ccc(Nc2cccc(C(=O)NCCC3CCCCC3)c2)cc1` [compound 24, N-(2-cyclohexylethyl)-3-((4-((tetrahydropyrimidin-2(1H)-ylidene)carbamoyl)phenyl)amino)benzamide], in test [1], the inhibition at 1 µM came to 100%. This molecule also returned a half-maximal inhibitory concentration (IC50) in test [1] (second round of experiments) of 100 to 400 nM.
`O=C(N=C1NCCCN1)c1ccc(Nc2cccc(C(=O)NCCC3CCC3)c2)cc1` [compound 26, N-(2-cyclobutylethyl)-3-((4-((tetrahydropyrimidin-2(1H)-ylidene)carbamoyl)phenyl)amino)benzamide]: in test [1], the inhibition at 1 µM was 97%.
`Cc1cc(C(=O)N=C2NCCCN2)ccc1Nc1cccc(C(=O)NCCC(C)C)c1` [compound 27, 4-((3-(isopentylcarbamoyl)phenyl)amino)-3-methyl-N-(tetrahydropyrimidin-2(1H)-ylidene)benzamide]: the inhibition at 1 µM in test [1] came to 96%. Also, in the test on RSV A2, the EC50 was found to be 365 nM.
Consider `Cc1cc(C(=O)N=C2NCCCN2)ccc1Nc1cccc(C(=O)NCCC2CCCC2)c1` [compound 28, 4-((3-((2-cyclopentylethyl)carbamoyl)phenyl)amino)-3-methyl-N-(tetrahydropyrimidin-2(1H)-ylidene)benzamide], for which the inhibition at 1 µM in test [1] came to 97%. In addition, the EC50 with RSV A2 is 308 nM.
